Measured values published in US20220017833A1, “Methods and Compositions for Scavenging Sulfides from Hydrocarbon Fluids and Aqueous Streams” (Nexgen Oilfield Chemicals, LLC, priority 2019, published 2022).

Experiments:
[1] = Short Reaction Time Capacity Test; conditions: 20 g test; for Min to BT / Min to FD: 3.00 g BuOH, GIDA 6.68 g as GID, 3.32 g water
Excerpt: Referring now to FIG. 1, therein is schematically depicted a sulfide scavenger testing system 100 comprising a gas source 2, a flow regulator 4, gas treatment vessel 6, and a sulfide measurement device 8. In one testing embodiment, gas (not shown) is flowed from gas source 2 via gas feed piping 10 into flow regulator 4, which regulates gas flow to gas treatment vessel 6 via regulated gas feed piping 12. The regulated gas flows into gas treatment vessel 6 via a bottom inlet 14 thereof, where it comes into contact with a volume of liquid 16 comprising a sulfide scavenger system (not separately labeled). The gas, having been treated by the liquid, flows out of a top end 18 of gas treatment vessel 6 and flows into sulfide measurement device 8 via treated gas outlet piping 20.
In one embodiment, gas flow from the flow regulator 4 is controlled such that the gas is flowed into the gas treatment vessel 6 at a flow rate of 100 mL/min. up to 500 mL/min. In one embodiment, a gas sparging device, such as a fine pore frit (not shown), is utilized to better distribute the gas into the scavenger liquid. In one embodiment, the gas treatment vessel 6 contains about 20 g of a liquid H2S scavenger, such as one or more diaminols/diaminacetals in a chemical system as described above. In one aspect, to the extent possible, H2S and/or CO2 are scavenged from the gas by the scavenger and the treated (“sweet”) gas exits top end 18 of treatment vessel 6. In one embodiment, sulfide measurement device 8 monitors the concentration of H2S leaving treatment vessel 6. in the gas phase. In other embodiments (not shown), a CO2 measurement device may be similarly employed to monitor the concentration of CO2 leaving treatment vessel 6 in the gas phase.
In one embodiment, gas is flowed through sulfide scavenger testing system 100 until the outlet H2S concentration reaches a 4,000 ppm target, at which point the test is concluded. This relative time duration before the target is reached is used to compare H2S scavenger capacity given the kinetics of each sulfide scavenger system. The longer the duration, the better the capacity.
The fine bubbles produced rise slowly, providing plenty of time, plenty of surface area, and a short path through which the H2S must diffuse to the scavenger in the liquid 16. Detector 8 on the outlet line 20 is used to measure H2S concentration in the exiting gas. The times to first detection (FD), at a threshold of 15 ppm, and to complete breakthrough (BT), at the detector saturation of 4000 ppm (0.4%), are recorded. This test is designed to measure the effective scavenging capacity in applications with long contact times.
This test is the same as the Long Reaction Time Capacity Test, but without the gas sparging device, so as to produce larger bubbles, and at a higher feed rate of 200 mL/min, after the first 8 minutes at 100 mL/min. The larger bubbles rise quickly through the liquid 16, providing little time, little surface area, and a long path through which the H2S must diffuse to the scavenger in the liquid. This test is designed to measure the effective scavenging capacity in applications with short contact times. It is far more reaction rate dependent than the Long Reaction Time Capacity and so is a more critical and differentiating test.
With triazine, one H2S reacts twice with the same molecule of triazine, replacing one amine, so the rate is “first order”, meaning proportional to the concentration of triazine.

[2] = Solution Homogeneity Test; assay type: physicochemical; conditions: Table 5; glyoxy alkyl diaminol in water and MeOH only
Excerpt: In one aspect, as two-phase reaction products are problematic, scavenger system homogeneity is desired. The two phases could be emulsified or otherwise finely dispersed, but in practice, even fine, seemingly stable dispersions eventually separate or stratify in extended storage or critical use and are not robust enough for practical use. They are not allowed, for example, to be fed through capillaries for fear of plugging them. In this pass/fail test, a sample is held up for visual inspection in a backlit clear vial. A clear, single-phase, homogeneous solution is a pass. Anything else is a fail.

Hot Spray Fouling Test = assay type: physicochemical; conditions: Table 5; glyoxy alkyl diaminol in water and MeOH only
Excerpt: In many gas applications, the scavenger must by sprayed into a hot gas stream. This can create insoluble materials (“solids”) as the scavenger system evaporates and/or decomposes. These solids accumulate and foul (interfere with the function) of the vessel, line, or equipment to which the scavenger is being fed. This precludes the scavenger being used in that application. Referring now to FIG. 2, a spray test system 200 is utilized to for the Hot Spray Fouling Test. In one embodiment, an injection atomizer apparatus 22 is employed, wherein the scavenger formulation (not separately labeled) is sprayed onto a sheet 26 through an atomizing nozzle 24, like that used to introduce the scavenger into a gas line, tank, or vessel. The material is first placed in a double boiler (not shown) and brought to 180° F. The heated liquid is then placed in the injection atomizer apparatus 22 and sprayed horizontally onto an aluminum sheet 26 twelve inches away. The chemical drains gravitationally down the sheet where it is funneled into a beaker 28 for collection. If solids are observed on the sheet 26 or in the draining or collected fluid, the sample fails. If no solids are observed, it passes the test.

[3] = Spent Solids Fouling Test; assay type: physicochemical; conditions: Table 5, glyoxy alkyl diaminol in water and MeOH only
Excerpt: In every application, the active component of the scavenger system reacts with H2S to from a reaction product. Once all the active scavenger has been so reacted, it is spent. […] Thioethers are much less water soluble than amines, so the reaction products are often insoluble. Thioether bridges also connect spent scavenger molecules to each other, thereby forming insoluble polymeric solids. These solids accumulate and foul (interfere with the function) of the vessel, line, or equipment to which the scavenger is being fed. […] If any solids or insoluble viscous liquids are observed poorly dispersed in the spent scavenger system or clinging to the sides of the vessel, the scavenging system employed in that Long Reaction Time Capacity Test fails this test. A homogeneous, single-phase solution or thin layer of readily flowable non-sticking liquid constitutes a pass.

[4] = operational testing in a natural gas production facility
Experimental: In operational testing in a natural gas production facility, both an anhydrous glyoxy isopropyl aminacetal (GIDAc) scavenging system and an aqueous glyoxy isopropyl diaminol (GIDA) scavenging system were tested in comparison with an industry standard triazine-based scavenger.

[5] = Eq/test GIDAc 0.114, GIDA 0.076 (8.00 g MeOH, 2.00 g BuOH)
[6] = Eq/test Triazine 0.068, GIDAc 0.157, GIDA 0.076 (7.50 g MeOH, 2.50 g BuOH)
[7] = GIDAc 8.00 g as GID, 9.00 g MeOH, 8.00 g MeOH, 2.00 g BuOH
[8] = Triazine 7.50 g + 12.50 g water, GIDAc 11.00 g as GID, 6.00 g MeOH, 7.50 g MeOH, 2.50 g BuOH

CC(C)NC(O)C(O)NC(C)C (centres unmarked) [GIDA, 1,2-bis[(propan-2-yl)amino]ethane-1,2-diol]
Min/Eq BT [1, 5]: 607 Min/Eq
Min/Eq FD [1, 5]: 515 Min/Eq
Min/Eq BT [1, 6]: 541 Min/Eq
Min/Eq FD [1, 6]: 462 Min/Eq
Min to BT [1, 7]: 46 min
Min to FD [1, 7]: 39 min
Min to BT [1, 8]: 41 min
Min to FD [1, 8]: 35 min
Solution Homogeneity [2]: Pass
Hot Spray Fouling (Hot Spray Fouling Test): Fail
Spent Solids Fouling ([3]; listed as i-Pr): Pass
Spent Solids Fouling ([3]; listed as iso-propylamine): passed
H2S removal on a pound-per-pound basis ([4]; compared with the triazine-based scavenging system): significantly higher H2S removal
employable in scavenging H2S from natural gas ([4]; natural gas production facility): employable
